In a melting point compilation (Tetko et al.; mined from patent text by program, amines drawn as free bases though some values may be those of a salt):

Compound	melting point
CS(=O)(=O)CCCCC(C1CCCCC1)S(=O)(=O)c1ccc(Cl)cc1 (stereo unspecified)	104 to 106 °C
O=C(O)CCCc1nc(-c2cccnc2)c(-c2ccccc2)s1	141 to 142 °C
O=C(N[C@H]1CC[C@H](CCN2CCN(c3nccc4c3CCO4)CC2)CC1)c1cnc(N2CCOCC2)cn1	192 °C
O=C(O)c1ccccc1Sc1ccc(C(O)=NCc2ccccc2)c(C(=O)O)c1	289 to 294 °C
COC1Nc2c(O)cccc2C(=O)N2CCCC12 (stereo unspecified)	150 to 153 °C
Cn1cncc1C(=O)NCc1cccc2c1C(=O)N(C1CCC(=O)NC1=O)C2=O (stereo unspecified)	> 260 °C
CS(=O)c1nc(-c2ccccc2)cs1 (stereo unspecified)	104 to 105 °C
COC(=O)[C@H](Cc1ccc(N)cc1)NC(=O)OC(C)(C)C	86 to 89 °C
CC(C)(C)OCCOc1cc(N)c([N+](=O)[O-])cc1I	144 to 146 °C
S=C(Nc1ccc(Cl)cc1)NC1CCCCC1	179 to 180 °C
COc1cccc2c1C1(COc3cc4c(cc31)OCO4)C(=O)N2Cc1ccc(C(F)(F)F)o1 (stereo unspecified)	149 to 153 °C
c1cnc(N2CCN(Cc3ccc(CN4CCN(c5ncccn5)CC4)cc3)CC2)nc1	193 to 195 °C
O=Cc1ccc(O)c2ccsc12	204 °C
FC(F)(F)C1(c2cc(Cl)cc(Cl)c2)CC(c2cnc(Cl)c(Cl)c2)=NO1 (stereo unspecified)	155 to 157 °C
O=c1[nH]nc2ccc(NCCCN3CCC(OC(c4ccccc4)c4ccccc4)CC3)nn12	156 to 170 °C
CCCC(=O)NCCc1c[nH]c2cc(Cl)c(OC)cc12	98 to 98.5 °C
Cc1ccc(NS(=O)(=O)c2cccs2)c2[nH]c(C3=NCCS3)cc12	198 to 199 °C
COc1cc(C)c(C(=O)c2c(OC)cccc2C(F)(F)F)c(OC)c1OC	69 to 70 °C
CCOC(=O)OC1CCN(C(=O)OCC)Cc2c1nc1ccccc1c2C (stereo unspecified)	40 °C
CCc1cn(C(C)(C)C(=O)N(C)C)nc1-c1ccccc1Cl	102 to 104 °C
COC(=O)Nc1nc(-c2ccccc2)c(-c2nc3ccccc3c(=O)n2-c2ccccc2)s1	> 275 °C
Clc1ccc2[nH]cc(C3=CCN(CCOc4ccccc4)CC3)c2c1	172 °C
COc1ccc2occ(N)c(=O)c2c1	98 to 100 °C
COc1ccc(C(=O)CCCCCBr)c(Cl)c1Cl	52 to 53 °C
CC(C)(C)C(NC(=O)c1ccc(Cl)cc1)NC(=S)Nc1cccnc1 (stereo unspecified)	164 to 167 °C
O=C1NC(Cc2ccc([N+](=O)[O-])c(OCc3ccccc3)c2)C(=O)Nc2ccccc21 (stereo unspecified)	243 to 245 °C

Compound	melting point
CCOC(=O)C1CCC(Sc2ccc(F)cc2)C(=O)C1 (stereo unspecified)	96 to 97 °C
CC(=O)C1CCc2c([nH]c3ccc(Cl)cc23)C1 (stereo unspecified)	159 to 161 °C
COc1ccc(C(=O)c2cc3ccccc3o2)c(Cl)c1Cl	148 °C
COc1ccc([C@H](CC(=O)O)n2ccn(CCCc3ccc4c(n3)NCCC4)c2=O)cn1	123 °C
Oc1cc(Cl)c(Br)c(Cl)c1	118 to 120 °C
CN1CCN(c2ccc(F)cc2C=C2CCCN(c3ccc(F)c(F)c3)C2=O)CC1	168 to 170 °C
O=c1c(CCCc2ccccn2)cc2cccnc2n1-c1ccc2nsnc2c1	170 °C
CN1CCN(c2ccc(C(=O)N[C@H]3CC[C@H](CCN4CCN(c5nccc6c5OCC6)CC4)CC3)cc2)CC1	236 °C
COC(=O)Cn1c(C)cc(Sc2ccccc2)c(N)c1=O	65 to 66 °C
CC(Cc1cccc(O)c1)NCCC(c1ccccc1)c1ccccc1 (stereo unspecified)	122 to 124 °C
COc1cc2ncnc(N3c4ccccc4CC3C)c2cc1OC (stereo unspecified)	154 to 156 °C
O=c1[nH]nnn1-c1ccc(OCc2ccc(F)cc2)cc1F	171 to 172 °C
CCc1cc(SCCc2cccc3cn(-c4ccc(C(F)(F)F)cc4)nc23)ccc1OCC(=O)O	115 to 117 °C
NC(=O)Cc1cnc2c(NC(=O)c3c(Cl)cccc3Cl)cccc2c1	251 to 253 °C
Cc1cc(C)c(Nc2nc(C)ccc2S(=O)(=O)c2ccc(OCCCO)cc2)c(C)c1	152 to 153 °C
CC(=O)c1cc(NC(=O)OC(C)(C)C)ccc1O	107 to 108 °C
CCOC(=O)c1sc(Cl)nc1-c1ccc([N+](=O)[O-])cc1	146 to 148 °C
NC1(C2CCN(c3c(F)cc4c(=O)[nH]c(=O)n(C5CC5)c4c3OC(F)F)C2)CC1 (stereo unspecified)	210 to 214 °C
Clc1ccc(-c2onc3c(CBr)cccc23)c(Cl)c1	108 to 110 °C
O=C(O)CCC(=O)c1ccc(SCCCBr)cc1	91 to 94 °C
COc1ccc(C2=NN(Cc3ccc(C(=O)O)cc3)C(=O)[C@H]3CC=CC[C@@H]23)cc1OC (relative stereo)	192 to 193 °C
Cc1ccc(CNc2c(NC(C)(C)C)c(=O)c2=O)c(C)c1	228 to 229 °C
CCCCCCC(CO)n1cnc(C(N)=O)c1 (stereo unspecified)	97.5 to 100 °C
Cc1cccc(-c2n[nH]cc2-c2ccc(F)c(-c3ccc(CN4CCOCC4)cn3)c2)n1	68 to 70 °C
CCc1cn2c(=O)c(C(=O)O)cnc2c2ccccc12	221 to 223 °C

Now from value to molecule:

melting point	Compound
91 to 94 °C	CCOCc1cc(OC)c(-c2ccc(C[C@H](NC(=O)c3c(Cl)cccc3Cl)C(=O)OCC)cc2)c(OC)c1
140 to 145 °C	COC(=O)c1ccc(CC(C)N(CC(=O)c2ccc(OCc3ccccc3)c(NC(N)=O)c2)Cc2ccccc2)cc1 (stereo unspecified)
100 to 101 °C	CCN1CCN(C2=Nc3cc(Cl)ccc3Sc3ccccc32)CC1
229 to 231 °C	FC(F)c1nc2ccccc2n1-c1nc(Oc2cccnc2)nc(N2CCOCC2)n1
106 to 109 °C	Cn1ncc2c(c1=O)SCCNC2Cc1ccc(Cl)cc1 (stereo unspecified)
150 to 151 °C	Cc1cc(-c2cc(CN3CCN(C)CC3)c(=O)n(Cc3ccccc3Cl)n2)ccc1F
198 to 200 °C	COc1ccc(C)cc1NC(=O)Nc1ccc(N2CCN(C(=O)Nc3ccc(OCCO)cc3C(F)(F)F)CC2)nc1
211 °C	FC(F)(F)c1ccc(-c2cc(C(F)(F)F)n3cnc(-c4ccncc4)c3n2)cc1C(F)(F)F
133 to 134 °C	CCSCC(=O)c1cc(C(C)(C)C)c(O)c(C(C)(C)C)c1
230 to 231 °C	O=C(O)c1cccc(-c2cccc3c2CCN(Cc2cccc(C(F)(F)F)c2)C3)c1
150 to 151 °C	CCCc1c(C(=O)OCC)c2c3c(ccc2n1C)OC1c2ccc(OC)cc2CCN1C3 (stereo unspecified)
102 to 104 °C	NC(C=Cc1ccc(Cl)cc1)=NO
141 to 143 °C	CC(C)(C)OC(=O)N[C@@H](Cc1ccccc1)C(=O)CCC(=O)N[C@@H](Cc1c[nH]c2ccccc12)C(=O)O
94 to 97 °C	C=CCCCCCCCCN=C=O
232 to 234 °C	COc1ccc2c(c1)Sc1ccccc1C(=O)N2
138 to 140 °C	CCOP(=O)(CNC(=O)C[C@H]1O[C@H](c2cccc(OC)c2OC)c2cc(Cl)ccc2N(CC(C)(C)CO)C1=O)OCC
59 to 60 °C	CCCOc1ccc(CO)nc1Cl
139 to 142 °C	O=C=Nc1ccc(OC(=O)COCCOCC(=O)Oc2ccc(N=C=O)cc2)cc1
79 to 80 °C	O=C1CCC(CCC(=O)OCc2ccccc2)N1 (stereo unspecified)
61 to 62 °C	Cc1[nH]n(-c2ccccc2)c(=O)c1C(=O)C(C)C
168 to 170 °C	OCC1CCCc2c1ncn2C(c1ccccc1)(c1ccccc1)c1ccccc1 (stereo unspecified)
88.5 to 89.5 °C	CCOC(=O)CNC(=O)COc1c(F)cc(CSCCNS(=O)(=O)c2ccc(Cl)cc2)cc1F
120 to 121 °C	Cc1oc(-c2ccccc2)nc1COc1ccc(CCCC2OC(=O)NC2=O)cc1OC(C)C (stereo unspecified)
113 to 115 °C	N#Cc1cccc(Cc2ccccc2C=NC(c2ccccc2)c2ccccc2)c1
120 to 122 °C	COc1ccc(OC)c(-c2cc(F)cc3c2OC(CN)C3)c1 (stereo unspecified)

melting point	Compound
129 to 131 °C	CCOC(=O)C1C(c2ccco2)C(C(=O)OCC)C(O)(C(F)(F)F)NC1(O)C(F)(F)F (stereo unspecified)
170 °C	Cc1cc(S(=O)(=O)N(CC(N)=O)c2ccc(Cl)cc2Cc2cc(F)ccc2F)c(C)cc1Cl
46.5 to 47.5 °C	Cc1ccc(C#N)cc1Cl
143 to 145 °C	Cc1cc(N2CCN(c3c(C)c(C)c4c(c3C)CC(C)(C)O4)CC2)ccc1F
198 °C	CCCCC(Cn1cncn1)(C(=O)O)c1ccccc1OC (stereo unspecified)
242 to 243 °C	Cc1cncc(C)c1-c1c(C)cc(I)cc1C
118 to 120 °C	COc1ccc(/C=C/c2c(Cl)cncc2Cl)c2c1OCCCO2
170 to 172 °C	CN1CCN(C2=Nc3ccccc3-n3ccc4cc(Cl)cc2c43)CC1
184 to 186 °C	C[C@H]1NC(Cc2ccc(Br)c(Oc3cc(C#N)cc(C(F)F)c3)c2F)=NNC1=O
163 to 165 °C	CNc1ccncc1N
90 to 91.5 °C	Cc1cccc(NC(C(N)=O)c2ccccc2C)c1 (stereo unspecified)
153 to 154 °C	CC(C)(C)c1cc(C(C)(C)C)c(N)cc1N
59 to 61 °C	CCCC(=O)OC[C@H]1O[C@@H](n2ccc(OCC)nc2=O)CS1 (relative stereo)
84 to 86 °C	Fc1ccccc1OCc1ccc2ccccc2n1
210 to 213 °C	Cc1nc(N2CCC(c3ccccc3)CC2)c([N+](=O)[O-])c(=O)[nH]1
102 to 104 °C	CSCCCn1cc(C(=O)NCc2ccc(Cl)cc2)c(=O)c2cc(CN3CCOCC3)ccc21
110 to 111 °C	O=C(NCc1ccc(Cl)cc1)c1ccc2cnccc2n1
115 to 120 °C	NC(=NO)c1c(F)cccc1Cl
186 to 187 °C	COc1cc2oc(-c3ccc(F)cc3)c(Br)c2c(OC)c1Br
68 to 68.6 °C	OCCCc1ccc(OCc2ccco2)cc1Oc1ncc(C(F)(F)F)cc1Cl
110 to 112 °C	O=C(O)CCCOc1cccc(CCCCCCOc2cc(-c3ccsc3)cc(-c3ccc4c(c3)OCO4)c2)c1CCC(=O)O
117 to 119 °C	COc1cc(C2CCC(c3cc(OC)c(OC)c(OC)c3)C2N)cc(OC)c1OC (stereo unspecified)
145 °C	O=C(c1ccc(O)c(Cl)c1)c1ccc(Cl)cc1Cl
252 to 255 °C	Cc1n[nH]c2c1C(=O)CC(c1ccccc1O)C2 (stereo unspecified)
> 265 °C	Cc1ccc(C)n1C1=CC2=C(CC1)CCc1[nH]c(=O)c(=O)[nH]c12
